Measured values as given in patent US20210163532A1, “NOVEL M[…] PEPTIDES” (University of Florida Research Foundation, Incorporated, priority 2018, published 2021).
“Also recorded” adds a separate entry of the source. Where a SMILES comes first, the peptide text is derived from it. [ ]: non-standard residue; d: D form. dNMeA = CN[C@H](C)C(=O)O; Sar = CNCC(=O)O

Columns and labels:
[1] = In vitro metabolic stability in mouse liver microsomes
KOR = biological target: T1, KOR (Mus musculus, UniProt P33534); test: 55° C. warm-water tail-withdrawal assay, antagonism of U50,488-induced antinociception; assay type: in vivo; conditions: for KOR antagonism: i.c.v. pretreatment, U50,488 10 mg/kg i.p.
T1 construct: from tissue; host or cells: living C57Bl/6 mice (whole animal; CNS and periphery)
T1 sequence (P33534 whole entry): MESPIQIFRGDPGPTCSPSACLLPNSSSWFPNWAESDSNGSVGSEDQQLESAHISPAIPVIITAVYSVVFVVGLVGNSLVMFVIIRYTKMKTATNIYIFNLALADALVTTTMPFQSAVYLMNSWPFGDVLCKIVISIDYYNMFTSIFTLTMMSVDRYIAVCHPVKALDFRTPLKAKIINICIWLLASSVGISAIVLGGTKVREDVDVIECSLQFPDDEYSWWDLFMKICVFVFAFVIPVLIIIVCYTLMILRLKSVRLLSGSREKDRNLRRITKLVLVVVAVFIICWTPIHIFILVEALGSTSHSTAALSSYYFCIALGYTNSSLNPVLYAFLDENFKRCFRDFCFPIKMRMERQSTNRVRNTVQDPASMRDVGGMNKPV

μ opioid receptor = biological target: T2, μ opioid receptor (Mus musculus, UniProt P42866); test: 55° C. warm-water tail-withdrawal assay, antagonism of morphine-mediated antinociception; assay type: in vivo; conditions: 30 nmol i.c.v., 2.5 h pretreatment
T2 construct: mice are pretreated with the compound of the invention; from tissue; host or cells: living C57Bl/6 mice (whole animal)
T2 sequence (P42866 whole entry): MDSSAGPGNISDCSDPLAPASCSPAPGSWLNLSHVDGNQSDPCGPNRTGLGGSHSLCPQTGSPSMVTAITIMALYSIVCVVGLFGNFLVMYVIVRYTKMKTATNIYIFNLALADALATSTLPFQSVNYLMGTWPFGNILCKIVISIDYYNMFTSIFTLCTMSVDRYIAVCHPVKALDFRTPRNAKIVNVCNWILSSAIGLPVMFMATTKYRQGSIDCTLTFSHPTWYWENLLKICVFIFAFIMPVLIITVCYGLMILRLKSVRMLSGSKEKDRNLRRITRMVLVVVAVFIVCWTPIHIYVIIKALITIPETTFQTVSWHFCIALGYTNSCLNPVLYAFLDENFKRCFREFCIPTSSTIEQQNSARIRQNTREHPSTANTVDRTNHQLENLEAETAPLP

δ opioid receptor = biological target: T3, δ opioid receptor (Mus musculus, UniProt P32300); test: 55° C. warm-water tail-withdrawal assay, antagonism of SNC80-mediated antinociception; assay type: in vivo; conditions: 30 nmol i.c.v., 2.5 h pretreatment
T3 construct: from tissue; host or cells: living C57Bl/6 mice (whole animal)
T3 sequence (P32300 whole entry): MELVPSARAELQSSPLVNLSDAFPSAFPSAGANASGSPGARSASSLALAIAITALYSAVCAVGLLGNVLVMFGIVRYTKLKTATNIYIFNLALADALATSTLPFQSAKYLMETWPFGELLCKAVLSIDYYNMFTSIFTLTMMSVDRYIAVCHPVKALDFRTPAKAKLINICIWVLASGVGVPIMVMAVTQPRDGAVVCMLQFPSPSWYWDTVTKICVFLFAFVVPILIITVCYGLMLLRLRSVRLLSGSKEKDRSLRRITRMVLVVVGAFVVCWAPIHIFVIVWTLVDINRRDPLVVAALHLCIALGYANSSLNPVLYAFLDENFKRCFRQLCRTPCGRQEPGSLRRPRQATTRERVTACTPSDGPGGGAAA

MOR KO mice = test: Opioid receptor selectivity of antinociception, tail-withdrawal assay in MOR KO mice; assay type: in vivo, mouse; conditions: i.c.v.
mice [2] = test: Reinstatement of extinguished ethanol conditioned place preference; assay type: in vivo, mouse; conditions: 0.01 nmol i.c.v.
From the text: Similarly mice were place-conditioned using ethanol in a conditioned place-preference assay [Sperling, R. E., Gomes, S. M., Sypek, E. I., Carey, A. N. and McLaughlin, J. P., 2010. Endogenous kappa-opioid mediation of stress-induced potentiation of ethanol-conditioned place preference and self-administration. Psychopharmacology, 210, 199-209] with a biased conditioning paradigm (see McLaughlin, J. P., Ganno M. L., Eans, S. O., Mizrachi, E. and Paris, J. P., 2014. HIV-1 Tat protein exposure potentiates ethanol reward and reinstates extinguished ethanol-conditioned place preference. Current HIV Research, 12(6), 415-423). […] Mice were then pretreated once daily for two days with vehicle (50% DMSO in 0.9% saline, i.c.v.) or cyclo[D-Phe-Pro-Sar-Phe] (0.01 nmol, i.c.v.) and exposed to two days of forced swim stress or an additional cycle of ethanol place conditioning as described above.

KOR KO mice = conditions: 200 nmol i.c.v.; β-FNA 5 mg/kg s.c. −24 h
C57Bl/6 mice = test: Reinstatement of extinguished cocaine conditioned place preference
mice [3] = test: Reinstatement of extinguished morphine conditioned place preference; conditions: for stress-induced reinstatement of morphine CPP, peripheral pretreatment: 10 mg/kg i.p., nor-BNI once 24 h prior, cyclo[D-Phe-Pro-Sar-Phe] twice, 2.5 h prior to forced swimming daily
[4] = liver microsomes, apparent t1/2 in mouse liver microsomes, mouse liver microsomes, 37° C.

O=C1N[C@H](Cc2c[nH]c3ccccc23)C(=O)N[C@@H](Cc2ccccc2)C(=O)N2CCC[C@@H]2C(=O)N[C@H]1Cc1ccccc1 [[D-Trp]CJ-15,208, reference compound] (cyclo(F[dP]F[dW]))
half-life ([1]; microsomes): 11 min

C[C@@H]1C(=O)N[C@@H](Cc2ccccc2)C(=O)N[C@H](Cc2ccccc2)C(=O)N2CCC[C@H]2C(=O)N1C [cyclo[D-Phe-Pro-D-NMe-Ala-Phe]] (cyclo(F[dF]P[dNMeA]))
KOR antagonism (KOR): did not exhibit KOR antagonist activity
half-life [1, 4]: 12 min

CN1CC(=O)N[C@@H](Cc2ccccc2)C(=O)N[C@H](Cc2ccccc2)C(=O)N2CCC[C@H]2C1=O [cyclo[D-Phe-Pro-Sar-Phe]] (cyclo(F[dF]P[Sar]))
antagonism of U50,488-induced antinociception after i.p. administration (KOR; 2.5 h pretreatment, i.p.): dose-dependent antagonism of U50,488-induced antinociception
KOR antagonism (KOR): significantly antagonized KOR in a dose-dependent manner; also recorded: significant antagonism of only the KOR-selective agonist U50,488
dose giving significant blockade of U50,488-induced antinociception (KOR antagonism) (KOR; i.c.v., 2.5 h pretreatment): 1 pmol
KOR antagonism after oral administration (KOR; p.o., 2.5 h after administration): demonstrated KOR antagonism
antagonism of centrally administered (i.c.v.) U50,488 after oral administration (KOR; p.o., U50,488 i.c.v.): dose-dependently antagonized i.c.v. U50,488
morphine-mediated antinociception after pretreatment (μ opioid receptor): 100±0%
SNC80-mediated antinociception after pretreatment (δ opioid receptor): 87.1±7.7%
antinociception in opioid receptor KO mice (MOR KO mice; 1 nmol dose): significantly impaired only in MOR KO mice
antinociception ED50 (and 95% C.I.) in MOR KO mice (MOR KO mice; MOR KO mice): 58.2 (17.4-558) nmol
stress- and ethanol-induced reinstatement of ethanol CPP (FIG. 11) (mice [2]): prevented both stress- and ethanol-induced reinstatement of ethanol CPP
stress-induced reinstatement of ethanol CPP (mice [2]; −2 h): prevented stress-induced reinstatement of ethanol CPP
antinociception in KOR KO mice pretreated with MOR-selective antagonist β-FNA (KOR KO mice): completely inhibited
half-life [1, 4]: 60 min
cocaine-induced reinstatement of cocaine CPP (C57Bl/6 mice; 0.01 nmol i.c.v., 5 min pretreatment): prevented cocaine-induced reinstatement
reinstatement of cocaine CPP by compound alone (C57Bl/6 mice; 0.01 nmol i.c.v., no stress or cocaine): did not induce reinstatement
stress-induced reinstatement of cocaine CPP (C57Bl/6 mice; 0.01 nmol i.c.v., −1.5 h): prevented stress-induced reinstatement of cocaine CPP
stress-induced reinstatement of cocaine CPP, oral (C57Bl/6 mice; 30 mg/kg and 60 mg/kg p.o., −2.5 h): prevented stress-induced reinstatement of cocaine CPP
stress- and cocaine-induced reinstatement of CPP after oral administration (FIG. 10B) (C57Bl/6 mice; p.o.): prevented both stress- and cocaine-induced reinstatement of CPP after oral administration
morphine-induced reinstatement of morphine-CPP, lower dose (mice [3]; 0.01 nmol i.c.v.): did not have significant effects
reinstatement of extinguished morphine CPP by compound alone (mice [3]; 0.01 nmol i.c.v.): did not directly reinstate extinguished CPP
stress-induced reinstatement of morphine CPP (mice [3]; 0.01 nmol i.c.v., −2.5 h): prevented stress-induced reinstatement of morphine CPP
morphine-induced reinstatement of morphine-CPP (mice [3]; 0.03 nmol i.c.v., 5 min pretreatment): prevented morphine-induced reinstatement of morphine-CPP
stress-induced reinstatement of morphine CPP, peripheral pretreatment (mice [3]): prevented stress-induced reinstatement

Oc1ccc2c3c1O[C@H]1c4[nH]c5c(c4C[C@@]4(O)[C@@H](C2)N(CC2CC2)CC[C@]314)C[C@@]1(O)[C@H]2Cc3ccc(O)c4c3[C@@]1(CCN2CC1CC1)[C@H]5O4 [nor-BNI, nor-binaltorphimine, reference compound]
stress-induced reinstatement of morphine CPP, peripheral pretreatment (mice [3]): prevented stress-induced reinstatement
